Reference: PubChem BioAssay (NCI)
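A five-concentration, 48-hour dose response in 96-well plates underlies each endpoint, interpolated linearly between surrounding concentrations. At the TGI there is no net growth.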

Assays:
Assay in all cases: NCI-60 cell line screen, 48 h
786-0 renal = system: 786-0 renal
A549 NSCLC = system: A549 NSCLC
ACHN renal = system: ACHN renal
BT-549 breast = system: BT-549 breast
CAKI-1 renal = system: CAKI-1 renal
CCRF-CEM leukemia = system: CCRF-CEM leukemia
COLO 205 colon = system: COLO 205 colon
DU-145 prostate = system: DU-145 prostate
EKVX NSCLC = system: EKVX NSCLC
HCC-2998 colon = system: HCC-2998 colon
HCT-116 colon = system: HCT-116 colon
HCT-15 colon = system: HCT-15 colon
HL-60(TB) leukemia = system: HL-60(TB) leukemia
HOP-62 NSCLC = system: HOP-62 NSCLC
HOP-92 NSCLC = system: HOP-92 NSCLC
HS 578T breast = system: HS 578T breast
HT29 colon = system: HT29 colon
IGROV1 ovarian = system: IGROV1 ovarian
K-562 leukemia = system: K-562 leukemia
KM12 colon = system: KM12 colon
LOX IMVI melanoma = system: LOX IMVI melanoma
M14 melanoma = system: M14 melanoma
MALME-3M melanoma = system: MALME-3M melanoma
MCF7 breast = system: MCF7 breast
MDA-MB-231 breast = system: MDA-MB-231 breast
MDA-MB-435 = system: MDA-MB-435
MDA-N = system: MDA-N
MOLT-4 leukemia = system: MOLT-4 leukemia
NCI-H226 lung = system: NCI-H226 lung
NCI-H23 lung = system: NCI-H23 lung
NCI-H460 lung = system: NCI-H460 lung
NCI-H522 lung = system: NCI-H522 lung
NCI/ADR-RES ovarian = system: NCI/ADR-RES ovarian
OVCAR-3 ovarian = system: OVCAR-3 ovarian
OVCAR-4 ovarian = system: OVCAR-4 ovarian
OVCAR-5 ovarian = system: OVCAR-5 ovarian
OVCAR-8 ovarian = system: OVCAR-8 ovarian
PC-3 prostate = system: PC-3 prostate
RXF 393 renal = system: RXF 393 renal
SF-268 CNS = system: SF-268 CNS
SF-295 CNS = system: SF-295 CNS
SF-539 CNS = system: SF-539 CNS
SK-MEL-2 melanoma = system: SK-MEL-2 melanoma
SK-MEL-28 melanoma = system: SK-MEL-28 melanoma
SK-MEL-5 melanoma = system: SK-MEL-5 melanoma
SK-OV-3 ovarian = system: SK-OV-3 ovarian
SN12C renal = system: SN12C renal
SNB-19 CNS = system: SNB-19 CNS
SR leukemia = system: SR leukemia
SW-620 colon = system: SW-620 colon
T-47D breast = system: T-47D breast
TK-10 renal = system: TK-10 renal
U251 CNS = system: U251 CNS
UACC-257 melanoma = system: UACC-257 melanoma
UACC-62 melanoma = system: UACC-62 melanoma
UO-31 renal = system: UO-31 renal
A498 renal = system: A498 renal
RPMI-8226 leukemia = system: RPMI-8226 leukemia

## COCOc1cc(OC)ccc1C/C=N/O
786-0 renal
  TGI: > 100 µM
A549 NSCLC
  TGI: > 100 µM
ACHN renal
  TGI: > 100 µM
BT-549 breast
  TGI: > 100 µM
CAKI-1 renal
  TGI: > 100 µM
CCRF-CEM leukemia
  TGI: > 100 µM
COLO 205 colon
  TGI: > 100 µM
DU-145 prostate
  TGI: > 100 µM
EKVX NSCLC
  TGI: > 100 µM
HCC-2998 colon
  TGI: > 100 µM
HCT-116 colon
  TGI: > 100 µM
HCT-15 colon
  TGI: > 100 µM
HL-60(TB) leukemia
  TGI: > 100 µM
HOP-62 NSCLC
  TGI: > 100 µM
HOP-92 NSCLC
  TGI: > 100 µM
HS 578T breast
  TGI: > 100 µM
HT29 colon
  TGI: > 100 µM
IGROV1 ovarian
  TGI: > 100 µM
K-562 leukemia
  TGI: > 100 µM
KM12 colon
  TGI: > 100 µM
LOX IMVI melanoma
  TGI: > 100 µM
M14 melanoma
  TGI: > 100 µM
MALME-3M melanoma
  TGI: > 100 µM
MCF7 breast
  TGI: > 100 µM
MDA-MB-231 breast
  TGI: > 100 µM
MDA-MB-435
  TGI: > 100 µM
MDA-N
  TGI: > 100 µM
MOLT-4 leukemia
  TGI: > 100 µM
NCI-H226 lung
  TGI: > 100 µM
NCI-H23 lung
  TGI: > 100 µM
NCI-H460 lung
  TGI: > 100 µM
NCI-H522 lung
  TGI: > 100 µM
NCI/ADR-RES ovarian
  TGI: > 100 µM
OVCAR-3 ovarian
  TGI: > 100 µM
OVCAR-4 ovarian
  TGI: > 100 µM
OVCAR-5 ovarian
  TGI: > 100 µM
OVCAR-8 ovarian
  TGI: > 100 µM
PC-3 prostate
  TGI: > 100 µM
RXF 393 renal
  TGI: > 100 µM
SF-268 CNS
  TGI: > 100 µM
SF-295 CNS
  TGI: > 100 µM
SF-539 CNS
  TGI: > 100 µM
SK-MEL-2 melanoma
  TGI: > 100 µM
SK-MEL-28 melanoma
  TGI: > 100 µM
SK-MEL-5 melanoma
  TGI: > 100 µM
SK-OV-3 ovarian
  TGI: > 100 µM
SN12C renal
  TGI: > 100 µM
SNB-19 CNS
  TGI: > 100 µM
SR leukemia
  TGI: > 100 µM
SW-620 colon
  TGI: > 100 µM
T-47D breast
  TGI: > 100 µM
TK-10 renal
  TGI: > 100 µM
U251 CNS
  TGI: > 100 µM
UACC-257 melanoma
  TGI: > 100 µM
UACC-62 melanoma
  TGI: > 100 µM
UO-31 renal
  TGI: > 100 µM

## CCCCn1c(C)c(C(=O)CC)c(C(=O)NCCN2CCN(c3ccccc3Cl)CC2)c1C
786-0 renal
  TGI: 32.5 µM
A498 renal
  TGI: 32.3 µM
A549 NSCLC
  TGI: 32.9 µM
ACHN renal
  TGI: 30.2 µM
BT-549 breast
  TGI: 30.3 µM
CAKI-1 renal
  TGI: 32.3 µM
CCRF-CEM leukemia
  TGI: > 100 µM
COLO 205 colon
  TGI: 28.4 µM
DU-145 prostate
  TGI: 35.4 µM
EKVX NSCLC
  TGI: 33.1 µM
HCT-116 colon
  TGI: 27.7 µM
HCT-15 colon
  TGI: 31.6 µM
HL-60(TB) leukemia
  TGI: 49.5 µM
HOP-62 NSCLC
  TGI: 40.6 µM
HOP-92 NSCLC
  TGI: 27.7 µM
HS 578T breast
  TGI: 58.1 µM
HT29 colon
  TGI: 29.2 µM
IGROV1 ovarian
  TGI: 30.9 µM
K-562 leukemia
  TGI: > 100 µM
KM12 colon
  TGI: 37.5 µM
LOX IMVI melanoma
  TGI: 35.6 µM
M14 melanoma
  TGI: 33.5 µM
MALME-3M melanoma
  TGI: 34.4 µM
MCF7 breast
  TGI: 36.2 µM
MDA-MB-231 breast
  TGI: 33.8 µM
MDA-MB-435
  TGI: 36.4 µM
MDA-N
  TGI: 31 µM
MOLT-4 leukemia
  TGI: 50.1 µM
NCI-H226 lung
  TGI: 37.8 µM
NCI-H23 lung
  TGI: 30.5 µM
NCI-H460 lung
  TGI: 28.9 µM
NCI-H522 lung
  TGI: 33.3 µM
NCI/ADR-RES ovarian
  TGI: 34.3 µM
OVCAR-3 ovarian
  TGI: 48.1 µM
OVCAR-4 ovarian
  TGI: 34.6 µM
OVCAR-5 ovarian
  TGI: 33.3 µM
OVCAR-8 ovarian
  TGI: 35.8 µM
PC-3 prostate
  TGI: 31.1 µM
RPMI-8226 leukemia
  TGI: 81.8 µM
RXF 393 renal
  TGI: 39.4 µM
SF-268 CNS
  TGI: 37.7 µM
SF-295 CNS
  TGI: 34.6 µM
SF-539 CNS
  TGI: 34.9 µM
SK-MEL-2 melanoma
  TGI: 32.1 µM
SK-MEL-28 melanoma
  TGI: 48.2 µM
SK-MEL-5 melanoma
  TGI: 28.7 µM
SK-OV-3 ovarian
  TGI: 35.7 µM
SN12C renal
  TGI: 30.9 µM
SNB-19 CNS
  TGI: 31.3 µM
SR leukemia
  TGI: 60.1 µM
SW-620 colon
  TGI: > 100 µM
T-47D breast
  TGI: 51.2 µM
TK-10 renal
  TGI: 33.9 µM
U251 CNS
  TGI: 31.3 µM
UACC-257 melanoma
  TGI: 26.3 µM
UACC-62 melanoma
  TGI: 29.9 µM
UO-31 renal
  TGI: 27.1 µM
